Data: ChEMBL document CHEMBL1145498, “A systematic interaction map of validated kinase inhibitors with Ser/Thr kinases” (Proc Natl Acad Sci U S A, 2007)

The compounds below were run against Dual specificity protein kinase CLK3 (Homo sapiens) (UniProt P49761).
Dual specificity protein kinase CLK3 (Homo sapiens), sequence (P49761 whole entry, looked up): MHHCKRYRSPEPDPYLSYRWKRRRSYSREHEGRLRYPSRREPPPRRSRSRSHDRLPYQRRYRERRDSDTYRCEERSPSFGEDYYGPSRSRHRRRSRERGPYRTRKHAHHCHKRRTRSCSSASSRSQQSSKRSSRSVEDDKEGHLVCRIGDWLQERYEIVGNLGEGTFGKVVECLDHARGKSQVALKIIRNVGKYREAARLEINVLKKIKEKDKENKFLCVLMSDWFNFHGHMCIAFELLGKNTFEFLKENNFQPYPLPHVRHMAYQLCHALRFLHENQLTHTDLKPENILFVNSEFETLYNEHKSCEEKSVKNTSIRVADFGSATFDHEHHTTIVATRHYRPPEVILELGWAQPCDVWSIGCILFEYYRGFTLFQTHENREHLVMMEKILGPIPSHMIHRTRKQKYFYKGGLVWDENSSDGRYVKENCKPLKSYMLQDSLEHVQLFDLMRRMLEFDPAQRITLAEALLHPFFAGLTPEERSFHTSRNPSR

| Compound | ΔTm [°C] |
| --- | --- |
| CN(C)c1ccc(CC2C(=O)Nc3ccccc32)cc1 (stereo not given) | 0.1 |
| O=C1Nc2ccccc2/C1=C1/Nc2ccccc2/C1=N\O | 4 |

Next, values leading:

| ΔTm [°C] | Compound |
| --- | --- |
| 3.2 | Cn1cc(/C=C2/C(=O)Nc3ccc(S(N)(=O)=O)cc32)c2ccccc21 |
| 0.1 | O=c1ccc2ccc(O)c(O)c2o1 [DAPHNETIN] |
| -0.1 | Oc1ccc(-c2nc(-c3ccc(F)cc3)c(-c3ccncc3)[nH]2)cc1 |

The compounds below were run against Calcium/calmodulin-dependent protein kinase type 1G (Homo sapiens) (UniProt Q96NX5).
Calcium/calmodulin-dependent protein kinase type 1G (Homo sapiens), sequence (Q96NX5 whole entry): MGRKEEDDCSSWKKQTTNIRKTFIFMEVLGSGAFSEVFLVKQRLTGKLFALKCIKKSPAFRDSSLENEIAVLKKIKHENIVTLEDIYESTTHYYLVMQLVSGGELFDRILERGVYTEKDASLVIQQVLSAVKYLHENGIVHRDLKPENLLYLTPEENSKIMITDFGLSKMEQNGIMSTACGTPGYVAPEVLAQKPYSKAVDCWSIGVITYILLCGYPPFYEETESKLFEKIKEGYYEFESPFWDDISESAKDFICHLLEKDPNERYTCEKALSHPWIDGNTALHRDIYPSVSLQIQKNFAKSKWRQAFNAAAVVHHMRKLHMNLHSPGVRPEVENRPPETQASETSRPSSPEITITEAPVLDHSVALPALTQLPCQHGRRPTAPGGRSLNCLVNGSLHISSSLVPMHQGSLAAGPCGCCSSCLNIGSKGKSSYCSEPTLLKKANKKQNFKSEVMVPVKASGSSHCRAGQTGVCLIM

| Compound | ΔTm [°C] |
| --- | --- |
| CN(C)c1ccc(CC2C(=O)Nc3ccccc32)cc1 (stereo not given) | -0.2 |
| O=C1Nc2ccccc2/C1=C1/Nc2ccccc2/C1=N\O | 3.1 |

Further lines, results first:

| ΔTm [°C] | Compound |
| --- | --- |
| 0.5 | Cn1cc(/C=C2/C(=O)Nc3ccc(S(N)(=O)=O)cc32)c2ccccc21 |
| 0 | O=c1ccc2ccc(O)c(O)c2o1 [DAPHNETIN] |
| -0.1 | Oc1ccc(-c2nc(-c3ccc(F)cc3)c(-c3ccncc3)[nH]2)cc1 |

The compounds below were run against T1, Serine/threonine-protein kinase 4 (Homo sapiens) (UniProt Q13043).
T1 sequence (whole entry): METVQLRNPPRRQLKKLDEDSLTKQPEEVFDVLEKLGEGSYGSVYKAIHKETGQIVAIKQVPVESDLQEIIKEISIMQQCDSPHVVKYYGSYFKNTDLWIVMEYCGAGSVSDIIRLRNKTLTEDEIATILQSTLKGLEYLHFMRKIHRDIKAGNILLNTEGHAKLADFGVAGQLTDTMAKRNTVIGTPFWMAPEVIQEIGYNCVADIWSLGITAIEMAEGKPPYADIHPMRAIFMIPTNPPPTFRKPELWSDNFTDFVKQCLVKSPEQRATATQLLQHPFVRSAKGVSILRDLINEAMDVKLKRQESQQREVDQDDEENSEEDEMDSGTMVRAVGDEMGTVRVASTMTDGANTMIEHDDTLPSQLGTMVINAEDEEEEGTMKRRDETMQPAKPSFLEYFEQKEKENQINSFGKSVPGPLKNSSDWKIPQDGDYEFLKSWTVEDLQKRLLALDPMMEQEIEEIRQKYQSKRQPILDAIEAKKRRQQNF

| Compound | ΔTm [°C] |
| --- | --- |
| CN(C)c1ccc(CC2C(=O)Nc3ccccc32)cc1 (stereo not given) | 4.4 |
| O=C1Nc2ccccc2/C1=C1/Nc2ccccc2/C1=N\O | 8.4 |

Next, values leading:

| ΔTm [°C] | Compound |
| --- | --- |
| -0.4 | Cn1cc(/C=C2/C(=O)Nc3ccc(S(N)(=O)=O)cc32)c2ccccc21 |
| 0 | O=c1ccc2ccc(O)c(O)c2o1 [DAPHNETIN] |
| 0.9 | Oc1ccc(-c2nc(-c3ccc(F)cc3)c(-c3ccncc3)[nH]2)cc1 |

Each compound was assayed against Serine/threonine-protein kinase 10 (Homo sapiens) (UniProt O94804).
Serine/threonine-protein kinase 10 (Homo sapiens), sequence (O94804 whole entry, looked up): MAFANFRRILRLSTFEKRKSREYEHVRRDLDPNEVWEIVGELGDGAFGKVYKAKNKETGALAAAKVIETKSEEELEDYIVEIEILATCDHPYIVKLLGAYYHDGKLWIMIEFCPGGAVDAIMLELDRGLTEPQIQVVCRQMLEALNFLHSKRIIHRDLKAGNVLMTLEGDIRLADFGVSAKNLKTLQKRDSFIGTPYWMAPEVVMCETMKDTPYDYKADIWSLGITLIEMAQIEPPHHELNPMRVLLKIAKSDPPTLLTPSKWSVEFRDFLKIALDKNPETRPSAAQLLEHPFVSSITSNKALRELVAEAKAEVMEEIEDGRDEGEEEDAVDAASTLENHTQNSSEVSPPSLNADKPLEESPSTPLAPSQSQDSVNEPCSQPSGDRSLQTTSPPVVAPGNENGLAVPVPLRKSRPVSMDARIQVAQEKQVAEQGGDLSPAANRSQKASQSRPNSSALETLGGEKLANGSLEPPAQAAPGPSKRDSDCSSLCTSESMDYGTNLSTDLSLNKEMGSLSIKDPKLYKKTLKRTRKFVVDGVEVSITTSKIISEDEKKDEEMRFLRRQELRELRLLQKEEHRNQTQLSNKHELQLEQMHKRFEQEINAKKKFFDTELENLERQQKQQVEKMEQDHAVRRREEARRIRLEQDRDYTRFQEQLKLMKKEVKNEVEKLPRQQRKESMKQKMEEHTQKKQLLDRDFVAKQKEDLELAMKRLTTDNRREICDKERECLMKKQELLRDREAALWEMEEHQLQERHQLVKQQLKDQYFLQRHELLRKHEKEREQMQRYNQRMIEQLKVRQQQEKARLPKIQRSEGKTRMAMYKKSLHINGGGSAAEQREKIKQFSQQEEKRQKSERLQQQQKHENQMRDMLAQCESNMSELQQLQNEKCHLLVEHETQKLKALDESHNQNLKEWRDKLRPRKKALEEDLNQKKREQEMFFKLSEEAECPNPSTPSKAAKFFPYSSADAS

| Compound | ΔTm [°C] |
| --- | --- |
| CN(C)c1ccc(CC2C(=O)Nc3ccccc32)cc1 (stereo not given) | 0.9 |
| O=C1Nc2ccccc2/C1=C1/Nc2ccccc2/C1=N\O | 6.2 |

Further lines, results first:

| ΔTm [°C] | Compound |
| --- | --- |
| 6.3 | Cn1cc(/C=C2/C(=O)Nc3ccc(S(N)(=O)=O)cc32)c2ccccc21 |
| -0.5 | O=c1ccc2ccc(O)c(O)c2o1 [DAPHNETIN] |
| 4.4 | Oc1ccc(-c2nc(-c3ccc(F)cc3)c(-c3ccncc3)[nH]2)cc1 |

What follows are compounds tested against Cyclin-dependent kinase 6 (Homo sapiens) (UniProt Q00534).
Cyclin-dependent kinase 6 (Homo sapiens), sequence (Q00534 whole entry): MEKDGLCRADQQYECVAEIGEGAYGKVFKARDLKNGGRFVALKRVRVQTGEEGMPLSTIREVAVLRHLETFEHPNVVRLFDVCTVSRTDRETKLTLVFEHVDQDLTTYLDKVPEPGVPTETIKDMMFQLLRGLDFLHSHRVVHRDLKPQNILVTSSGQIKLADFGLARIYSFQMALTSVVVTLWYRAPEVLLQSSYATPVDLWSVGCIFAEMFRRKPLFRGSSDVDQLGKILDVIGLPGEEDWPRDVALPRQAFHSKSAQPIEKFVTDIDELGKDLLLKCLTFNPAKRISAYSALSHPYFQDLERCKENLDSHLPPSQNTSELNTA

| Compound | ΔTm [°C] |
| --- | --- |
| CN(C)c1ccc(CC2C(=O)Nc3ccccc32)cc1 (stereo not given) | 0.8 |
| O=C1Nc2ccccc2/C1=C1/Nc2ccccc2/C1=N\O | 5.9 |

Results, then the compound that gave them:

| ΔTm [°C] | Compound |
| --- | --- |
| -0.2 | Cn1cc(/C=C2/C(=O)Nc3ccc(S(N)(=O)=O)cc32)c2ccccc21 |
| -0.3 | O=c1ccc2ccc(O)c(O)c2o1 [DAPHNETIN] |
| 0.2 | Oc1ccc(-c2nc(-c3ccc(F)cc3)c(-c3ccncc3)[nH]2)cc1 |

What follows are compounds tested against Cyclin-dependent kinase 16 (Homo sapiens) (UniProt Q00536).
Cyclin-dependent kinase 16 (Homo sapiens), sequence (Q00536 whole entry): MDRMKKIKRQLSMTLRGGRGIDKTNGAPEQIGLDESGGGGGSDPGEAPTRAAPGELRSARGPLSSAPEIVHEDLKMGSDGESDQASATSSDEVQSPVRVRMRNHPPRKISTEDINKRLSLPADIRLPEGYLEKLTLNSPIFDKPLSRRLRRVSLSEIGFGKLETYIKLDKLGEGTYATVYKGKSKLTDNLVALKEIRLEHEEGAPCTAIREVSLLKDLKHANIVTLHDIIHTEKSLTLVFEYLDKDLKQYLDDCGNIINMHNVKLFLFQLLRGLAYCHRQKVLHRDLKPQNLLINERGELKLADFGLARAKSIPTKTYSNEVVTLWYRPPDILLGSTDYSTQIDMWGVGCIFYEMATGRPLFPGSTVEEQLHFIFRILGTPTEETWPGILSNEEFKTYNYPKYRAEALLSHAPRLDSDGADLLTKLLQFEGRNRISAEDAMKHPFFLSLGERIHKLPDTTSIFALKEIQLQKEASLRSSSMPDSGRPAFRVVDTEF

| Compound | ΔTm [°C] |
| --- | --- |
| CN(C)c1ccc(CC2C(=O)Nc3ccccc32)cc1 (stereo not given) | -0.5 |
| O=C1Nc2ccccc2/C1=C1/Nc2ccccc2/C1=N\O | 8.9 |

The remaining lines, values ahead:

| ΔTm [°C] | Compound |
| --- | --- |
| 1.9 | Cn1cc(/C=C2/C(=O)Nc3ccc(S(N)(=O)=O)cc32)c2ccccc21 |
| -0.6 | O=c1ccc2ccc(O)c(O)c2o1 [DAPHNETIN] |
| -0.4 | Oc1ccc(-c2nc(-c3ccc(F)cc3)c(-c3ccncc3)[nH]2)cc1 |

The compounds below were run against T2, Mitogen-activated protein kinase kinase kinase 5 (Homo sapiens) (UniProt Q99683).
T2 sequence (whole entry): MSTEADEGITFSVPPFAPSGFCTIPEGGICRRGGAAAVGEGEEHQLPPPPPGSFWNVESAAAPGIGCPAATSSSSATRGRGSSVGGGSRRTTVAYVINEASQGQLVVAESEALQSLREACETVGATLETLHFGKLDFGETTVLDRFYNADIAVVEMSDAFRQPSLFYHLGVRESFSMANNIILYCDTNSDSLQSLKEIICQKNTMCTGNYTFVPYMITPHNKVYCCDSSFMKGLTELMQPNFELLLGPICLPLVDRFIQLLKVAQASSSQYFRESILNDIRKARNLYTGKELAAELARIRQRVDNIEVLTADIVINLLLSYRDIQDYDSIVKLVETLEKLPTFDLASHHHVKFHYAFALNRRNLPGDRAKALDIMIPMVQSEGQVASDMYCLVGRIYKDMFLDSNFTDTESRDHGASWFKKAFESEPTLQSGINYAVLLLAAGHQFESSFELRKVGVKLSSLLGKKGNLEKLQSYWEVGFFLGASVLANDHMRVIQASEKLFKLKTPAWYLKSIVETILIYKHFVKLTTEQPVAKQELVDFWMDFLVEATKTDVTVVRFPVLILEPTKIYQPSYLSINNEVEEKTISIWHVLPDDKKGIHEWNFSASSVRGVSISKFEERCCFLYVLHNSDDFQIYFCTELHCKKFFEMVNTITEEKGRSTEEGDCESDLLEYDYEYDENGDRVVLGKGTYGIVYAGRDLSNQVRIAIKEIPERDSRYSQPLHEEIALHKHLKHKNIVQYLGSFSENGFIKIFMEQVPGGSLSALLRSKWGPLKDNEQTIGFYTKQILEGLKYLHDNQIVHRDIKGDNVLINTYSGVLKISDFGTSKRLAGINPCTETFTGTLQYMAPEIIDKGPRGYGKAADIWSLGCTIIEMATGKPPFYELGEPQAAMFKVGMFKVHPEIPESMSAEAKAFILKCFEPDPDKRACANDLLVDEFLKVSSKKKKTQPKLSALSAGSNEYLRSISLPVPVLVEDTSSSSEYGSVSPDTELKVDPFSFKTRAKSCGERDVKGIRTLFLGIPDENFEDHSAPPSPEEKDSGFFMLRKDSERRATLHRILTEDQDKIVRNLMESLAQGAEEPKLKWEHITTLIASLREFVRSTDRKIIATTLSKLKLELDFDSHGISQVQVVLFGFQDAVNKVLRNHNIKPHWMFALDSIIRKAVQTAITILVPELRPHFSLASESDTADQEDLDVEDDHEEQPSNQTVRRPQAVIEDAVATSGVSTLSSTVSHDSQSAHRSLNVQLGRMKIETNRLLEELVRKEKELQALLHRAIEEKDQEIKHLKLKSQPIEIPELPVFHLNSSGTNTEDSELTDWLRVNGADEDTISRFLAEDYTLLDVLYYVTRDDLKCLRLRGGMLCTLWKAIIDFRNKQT

| Compound | ΔTm [°C] |
| --- | --- |
| CN(C)c1ccc(CC2C(=O)Nc3ccccc32)cc1 (stereo not given) | 1.1 |
| O=C1Nc2ccccc2/C1=C1/Nc2ccccc2/C1=N\O | 5.6 |

More lines, now with the values ahead:

| ΔTm [°C] | Compound |
| --- | --- |
| 1 | Cn1cc(/C=C2/C(=O)Nc3ccc(S(N)(=O)=O)cc32)c2ccccc21 |
| -0.6 | O=c1ccc2ccc(O)c(O)c2o1 [DAPHNETIN] |
| 0.3 | Oc1ccc(-c2nc(-c3ccc(F)cc3)c(-c3ccncc3)[nH]2)cc1 |

These compounds were tested against Serine/threonine-protein kinase PLK1 (Homo sapiens) (UniProt P53350).
Serine/threonine-protein kinase PLK1 (Homo sapiens), sequence (P53350 whole entry): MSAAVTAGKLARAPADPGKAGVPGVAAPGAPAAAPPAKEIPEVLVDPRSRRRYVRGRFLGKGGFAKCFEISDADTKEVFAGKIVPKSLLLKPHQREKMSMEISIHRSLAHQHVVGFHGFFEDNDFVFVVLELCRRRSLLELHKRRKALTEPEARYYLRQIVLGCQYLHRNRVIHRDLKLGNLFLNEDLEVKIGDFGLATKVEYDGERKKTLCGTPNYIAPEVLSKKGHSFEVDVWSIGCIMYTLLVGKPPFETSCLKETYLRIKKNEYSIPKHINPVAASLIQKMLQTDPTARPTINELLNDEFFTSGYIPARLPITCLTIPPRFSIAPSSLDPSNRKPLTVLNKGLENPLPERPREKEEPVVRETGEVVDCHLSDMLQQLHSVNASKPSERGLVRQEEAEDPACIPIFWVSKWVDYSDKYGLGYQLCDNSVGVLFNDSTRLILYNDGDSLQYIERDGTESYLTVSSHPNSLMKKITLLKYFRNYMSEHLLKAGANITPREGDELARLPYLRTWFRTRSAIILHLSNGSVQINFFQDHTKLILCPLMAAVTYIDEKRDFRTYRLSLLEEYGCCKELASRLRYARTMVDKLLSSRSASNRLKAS

| Compound | ΔTm [°C] |
| --- | --- |
| CN(C)c1ccc(CC2C(=O)Nc3ccccc32)cc1 (stereo not given) | -0.2 |
| O=C1Nc2ccccc2/C1=C1/Nc2ccccc2/C1=N\O | 1.6 |

The next lines start with the values.

| ΔTm [°C] | Compound |
| --- | --- |
| -0.7 | Cn1cc(/C=C2/C(=O)Nc3ccc(S(N)(=O)=O)cc32)c2ccccc21 |
| -0.1 | O=c1ccc2ccc(O)c(O)c2o1 [DAPHNETIN] |
| 0.1 | Oc1ccc(-c2nc(-c3ccc(F)cc3)c(-c3ccncc3)[nH]2)cc1 |

These compounds were tested against T3, Serine/threonine-protein kinase Nek2 (Homo sapiens) (UniProt P51955).
T3 sequence (whole entry): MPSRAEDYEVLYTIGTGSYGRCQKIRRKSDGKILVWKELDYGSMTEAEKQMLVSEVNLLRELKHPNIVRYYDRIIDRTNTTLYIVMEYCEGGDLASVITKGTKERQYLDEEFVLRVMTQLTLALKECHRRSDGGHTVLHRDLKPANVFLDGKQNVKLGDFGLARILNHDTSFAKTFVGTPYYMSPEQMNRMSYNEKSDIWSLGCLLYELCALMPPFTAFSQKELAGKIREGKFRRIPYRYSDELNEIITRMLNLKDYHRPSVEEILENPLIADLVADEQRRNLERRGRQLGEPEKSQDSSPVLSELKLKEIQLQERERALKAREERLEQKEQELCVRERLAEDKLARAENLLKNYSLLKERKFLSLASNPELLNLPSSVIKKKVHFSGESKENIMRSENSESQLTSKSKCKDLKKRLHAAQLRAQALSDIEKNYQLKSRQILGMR

| Compound | ΔTm [°C] |
| --- | --- |
| CN(C)c1ccc(CC2C(=O)Nc3ccccc32)cc1 (stereo not given) | -0.5 |
| O=C1Nc2ccccc2/C1=C1/Nc2ccccc2/C1=N\O | 2.8 |

Further lines, results first:

| ΔTm [°C] | Compound |
| --- | --- |
| 0.9 | Cn1cc(/C=C2/C(=O)Nc3ccc(S(N)(=O)=O)cc32)c2ccccc21 |
| 0.7 | O=c1ccc2ccc(O)c(O)c2o1 [DAPHNETIN] |
| 0.2 | Oc1ccc(-c2nc(-c3ccc(F)cc3)c(-c3ccncc3)[nH]2)cc1 |

The compounds below were run against Mitogen-activated protein kinase 6 (Homo sapiens) (UniProt Q16659).
Mitogen-activated protein kinase 6 (Homo sapiens), sequence (Q16659 whole entry): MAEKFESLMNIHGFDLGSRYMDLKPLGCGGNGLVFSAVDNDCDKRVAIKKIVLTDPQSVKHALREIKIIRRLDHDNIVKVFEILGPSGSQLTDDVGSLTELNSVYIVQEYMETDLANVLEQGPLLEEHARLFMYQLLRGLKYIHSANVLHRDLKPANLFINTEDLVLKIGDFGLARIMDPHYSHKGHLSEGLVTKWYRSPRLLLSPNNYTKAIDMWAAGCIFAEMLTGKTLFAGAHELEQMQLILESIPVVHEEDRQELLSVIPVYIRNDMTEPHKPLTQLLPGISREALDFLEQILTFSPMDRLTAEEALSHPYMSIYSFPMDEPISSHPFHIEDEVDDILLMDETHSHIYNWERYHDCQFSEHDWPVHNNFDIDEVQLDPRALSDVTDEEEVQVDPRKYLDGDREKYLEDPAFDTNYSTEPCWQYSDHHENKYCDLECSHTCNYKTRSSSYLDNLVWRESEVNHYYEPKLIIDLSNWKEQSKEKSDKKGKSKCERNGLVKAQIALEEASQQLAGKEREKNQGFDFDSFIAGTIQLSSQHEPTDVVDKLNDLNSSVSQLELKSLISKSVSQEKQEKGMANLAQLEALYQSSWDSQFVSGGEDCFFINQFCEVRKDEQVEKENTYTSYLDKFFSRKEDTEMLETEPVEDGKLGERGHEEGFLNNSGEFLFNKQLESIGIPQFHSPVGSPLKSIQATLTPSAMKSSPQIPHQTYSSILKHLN

| Compound | ΔTm [°C] |
| --- | --- |
| CN(C)c1ccc(CC2C(=O)Nc3ccccc32)cc1 (stereo not given) | 0.1 |
| O=C1Nc2ccccc2/C1=C1/Nc2ccccc2/C1=N\O | 0.4 |

Next, values leading:

| ΔTm [°C] | Compound |
| --- | --- |
| 5.5 | Cn1cc(/C=C2/C(=O)Nc3ccc(S(N)(=O)=O)cc32)c2ccccc21 |
| 0.2 | O=c1ccc2ccc(O)c(O)c2o1 [DAPHNETIN] |
| 0.2 | Oc1ccc(-c2nc(-c3ccc(F)cc3)c(-c3ccncc3)[nH]2)cc1 |
